Assay results taken from ChEMBL document CHEMBL1201862, “PubChem BioAssay data set” (2004).
Calls of active or inactive are those of the source.

Tests used:
[1] = target: T1, Insulin-degrading enzyme (Homo sapiens, UniProt P14735); test: Dose Response: Fluorescence polarization-based cell-based high throughput dose response assay for inhibitors of insulin-degrading enzyme (IDE). [Related pubchem assays: 434962 (Primary screen (IDE inhibitors in singlicate)), 449730 (Counterscreen (Cytotoxicity in triplicate)), 435028 (Confirmation (IDE inhibitors in triplicate)), 434984 (Summary …; assay type: functional
T1 sequence (P14735 whole entry): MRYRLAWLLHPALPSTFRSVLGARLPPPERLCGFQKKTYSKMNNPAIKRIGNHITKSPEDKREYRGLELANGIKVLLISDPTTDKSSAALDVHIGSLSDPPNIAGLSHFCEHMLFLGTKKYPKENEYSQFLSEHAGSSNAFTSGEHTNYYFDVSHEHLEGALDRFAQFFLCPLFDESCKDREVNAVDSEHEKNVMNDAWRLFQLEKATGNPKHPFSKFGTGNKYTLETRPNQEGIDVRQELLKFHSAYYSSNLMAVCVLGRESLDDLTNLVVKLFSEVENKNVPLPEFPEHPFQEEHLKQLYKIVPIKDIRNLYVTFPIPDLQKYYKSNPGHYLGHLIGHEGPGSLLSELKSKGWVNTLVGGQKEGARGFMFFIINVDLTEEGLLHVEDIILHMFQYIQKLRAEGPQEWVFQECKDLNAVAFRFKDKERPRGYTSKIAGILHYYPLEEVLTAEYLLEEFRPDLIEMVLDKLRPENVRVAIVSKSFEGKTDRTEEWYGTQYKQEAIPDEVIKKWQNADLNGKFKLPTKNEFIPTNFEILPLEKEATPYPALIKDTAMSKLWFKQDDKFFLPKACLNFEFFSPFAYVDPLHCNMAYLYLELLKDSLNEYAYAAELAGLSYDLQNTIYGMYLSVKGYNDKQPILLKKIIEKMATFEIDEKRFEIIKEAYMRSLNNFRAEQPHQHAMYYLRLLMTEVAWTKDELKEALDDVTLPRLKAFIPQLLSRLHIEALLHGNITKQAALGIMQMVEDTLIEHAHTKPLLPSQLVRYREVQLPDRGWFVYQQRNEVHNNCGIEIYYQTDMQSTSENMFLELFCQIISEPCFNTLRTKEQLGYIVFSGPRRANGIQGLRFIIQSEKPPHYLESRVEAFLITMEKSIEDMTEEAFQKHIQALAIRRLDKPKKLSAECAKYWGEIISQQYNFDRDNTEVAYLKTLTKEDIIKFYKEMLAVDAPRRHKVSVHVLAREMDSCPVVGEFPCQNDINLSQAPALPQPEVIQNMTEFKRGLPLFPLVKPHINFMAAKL

[2] = Counterscreen for IDE inhibitors: Luminescence-based cell-based high throughput dose response assay to identify compounds that are cytotoxic to HEK cells. [Related pubchem assays: 434962 (Primary screen (IDE inhibitors in singlicate)), 449730 (Counterscreen (Cytotoxicity in triplicate)), 435028 (Confirmation (IDE inhibitors in triplicate)) …; assay type: functional; conditions: HEK293
[3] = target: T2, RNA-binding protein pos-1 (Caenorhabditis elegans, UniProt G5EF15); test: disruptors of C. elegans POS-1 RNA interaction – biochemical, fluorescence polarization, dose response (AID 1964);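 note: purified POS-1 fused to maltose binding protein made in E. coli; potency of compounds blocking POS-1 binding to fluorescent RNA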
T2 sequence (G5EF15 whole entry): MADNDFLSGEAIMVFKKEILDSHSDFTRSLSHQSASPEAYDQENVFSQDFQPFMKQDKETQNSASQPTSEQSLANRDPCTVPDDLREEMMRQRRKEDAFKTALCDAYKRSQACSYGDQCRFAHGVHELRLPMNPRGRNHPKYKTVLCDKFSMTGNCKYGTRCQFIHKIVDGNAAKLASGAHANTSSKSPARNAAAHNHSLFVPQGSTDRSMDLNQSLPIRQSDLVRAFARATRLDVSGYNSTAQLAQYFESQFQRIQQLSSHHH

[4] = Trypanosoma cruzi growth suppression in host cells – NIH3T3 host cells, beta-gal luminescence, confirmation (AID 2044); assay type: functional, cell-based;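 note: intracellular parasites grown in NIH/3T3 mouse fibroblasts as host cells; luminescent beta-galactosidase reporter signal from transgenic T. cruzi replicating inside host cells; inhibitors lower the luminescence signal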
[5] = target: Nonstructural protein 1 (Influenza A virus, UniProt Q194T2); assay type: functional, Influenza A virus (A/California/07/2009(H1N1))
[6] = target: Serine/threonine-protein phosphatase PP1-alpha catalytic subunit (Homo sapiens, UniProt P62136); test: inhibition of protein phosphatase 1 activity – biochemical, fluorescence, dose response (AID 2403);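 note: phosphatase turnover of OMFP into fluorescent 3-O-methylfluorescein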
[7] = NIH3T3 cell viability loss – ATP luminescence, mouse fibroblasts, counter-screen, dose response (AID 2010); assay type: functional, cell-based;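 note: cells exposed to compound for about 90 hours before reading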
[8] = target: Serine/threonine-protein phosphatase (Homo sapiens, UniProt Q9BPW0); test: Counterscreen for inhibitors of PP1: fluorescence-based biochemical high throughput dose response assay to identify inhibitors of Protein Phosphatase 5 (PP5). [Related pubchem assays: 2034 (Summary (PP5 inhibitors)), 1987 (PP5 inhibitors in singlate), 2235 (PP1 inhibitors in singlate)]
[9] = system: INS1; test: INS-1E survival protection against cytokine death – cell-based, luminescence, retest, dose response (AID 449756); assay type: functional; conditions: Rattus norvegicus;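 note: cell death triggered by IL-1 beta plus TNF-alpha plus IFN-gamma mixture; protective hits raise ATP signal compared with cytokine alone wells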
[10] = target: Photoreceptor-specific nuclear receptor (Homo sapiens, UniProt Q9Y5X4); assay type: functional, cell-based;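 note: CHO-S cells with Gal4-NCOR and VP16-NR2E3 two-hybrid luciferase reporter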
Chain of Photoreceptor-specific nuclear receptor (Q9Y5X4 whole entry, the tested form may be a part): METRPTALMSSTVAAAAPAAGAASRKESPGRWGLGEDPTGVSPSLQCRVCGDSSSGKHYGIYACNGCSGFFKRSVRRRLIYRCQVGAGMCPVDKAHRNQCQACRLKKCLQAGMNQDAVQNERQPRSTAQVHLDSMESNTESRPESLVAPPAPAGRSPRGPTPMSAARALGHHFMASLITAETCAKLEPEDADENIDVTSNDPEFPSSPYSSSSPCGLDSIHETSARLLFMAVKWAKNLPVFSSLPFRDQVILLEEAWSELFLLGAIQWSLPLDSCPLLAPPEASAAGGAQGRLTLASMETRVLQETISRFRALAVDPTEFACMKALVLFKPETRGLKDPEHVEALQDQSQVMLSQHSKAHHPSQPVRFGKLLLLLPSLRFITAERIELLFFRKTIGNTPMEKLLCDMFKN

Chain of Nonstructural protein 1 (Q194T2 whole entry): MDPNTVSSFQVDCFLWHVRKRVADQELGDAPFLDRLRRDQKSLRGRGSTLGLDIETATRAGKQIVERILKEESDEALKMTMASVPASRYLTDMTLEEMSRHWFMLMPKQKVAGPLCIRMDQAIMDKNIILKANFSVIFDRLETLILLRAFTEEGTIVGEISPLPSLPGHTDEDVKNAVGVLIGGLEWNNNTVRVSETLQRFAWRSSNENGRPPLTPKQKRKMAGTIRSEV
Chain of Serine/threonine-protein phosphatase (Q9BPW0 whole entry): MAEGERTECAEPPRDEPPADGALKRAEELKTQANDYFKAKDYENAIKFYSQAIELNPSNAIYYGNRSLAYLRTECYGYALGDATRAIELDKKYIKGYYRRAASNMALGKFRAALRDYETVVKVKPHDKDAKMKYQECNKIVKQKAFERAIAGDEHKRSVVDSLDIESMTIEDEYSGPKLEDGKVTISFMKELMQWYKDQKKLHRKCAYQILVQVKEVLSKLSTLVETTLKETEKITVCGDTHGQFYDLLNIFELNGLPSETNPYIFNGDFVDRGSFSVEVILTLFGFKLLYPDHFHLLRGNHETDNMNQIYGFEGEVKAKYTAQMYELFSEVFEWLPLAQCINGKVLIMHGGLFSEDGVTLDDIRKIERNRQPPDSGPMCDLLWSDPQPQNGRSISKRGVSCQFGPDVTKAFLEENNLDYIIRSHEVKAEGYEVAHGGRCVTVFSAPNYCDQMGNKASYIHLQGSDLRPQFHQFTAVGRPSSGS
Chain of Serine/threonine-protein phosphatase PP1-alpha catalytic subunit (P62136 whole entry): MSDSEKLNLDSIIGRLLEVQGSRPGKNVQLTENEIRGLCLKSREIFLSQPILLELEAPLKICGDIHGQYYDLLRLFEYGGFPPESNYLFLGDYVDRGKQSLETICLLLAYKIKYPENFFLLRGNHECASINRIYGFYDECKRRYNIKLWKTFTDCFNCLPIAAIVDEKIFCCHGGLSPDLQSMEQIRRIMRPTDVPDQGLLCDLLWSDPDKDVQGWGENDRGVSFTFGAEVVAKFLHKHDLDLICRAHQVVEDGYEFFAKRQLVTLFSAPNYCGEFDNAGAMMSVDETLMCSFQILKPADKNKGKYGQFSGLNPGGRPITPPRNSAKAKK

| SMILES | IC50 [1] | IC50 [2] | EC50 [3] | EC50 [4] | IC50 [5] | IC50 [6] | EC50 [7] | IC50 [8] | AC50 [9] | IC50 [10] |
| --- | --- | --- | --- | --- | --- | --- | --- | --- | --- | --- |
| COc1ccc(/N=C(\C)c2sc3ccccc3c2O)cc1 | > 18.7 µM (not active) | > 55.7 µM (not active) | > 300 µM (not active) |  |  |  |  |  |  |  |
| Nc1nc(-c2ccccn2)nc(N)c1Cc1c(F)cccc1Cl |  |  |  | 1.18 µM (active) | 6.42 µM (active) | 7.4 µM (active) | 5.25 µM (active) | 62.2 µM (not active) | 5.84 µM (active) | 4.08 µM (active) |
